In US11998539B2, “Substituted aminoquinolones as DGKalpha inhibitors for immune activation” (Bayer Aktiengesellschaft, priority 2019, dated 2024):

Target: DGKα (Homo sapiens (Human), UniProt P23743)
Assay: Human DGKα kinase activity inhibition assay (ADP-Glo)
Format: biochemical
Details: recombinant full-length human DGKα, 55 μM ATP, 7 μM 1,2-dioleoyl-sn-glycerol, read-out: IC50 values of examples in in vitro human DGKa kinase activity inhibition assays
Summary of the method: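 Recombinant full-length human DGKα (C-terminal FLAG, from insect cells) phosphorylated 1,2-dioleoyl-sn-glycerol presented in octyl-glucopyranoside micelles. ADP formed was quantified by ADP-Glo luminescence. Compounds were added from 100-fold DMSO stocks.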

Chain of DGKα (P23743 other isoform, or with tags, fused parts or gaps): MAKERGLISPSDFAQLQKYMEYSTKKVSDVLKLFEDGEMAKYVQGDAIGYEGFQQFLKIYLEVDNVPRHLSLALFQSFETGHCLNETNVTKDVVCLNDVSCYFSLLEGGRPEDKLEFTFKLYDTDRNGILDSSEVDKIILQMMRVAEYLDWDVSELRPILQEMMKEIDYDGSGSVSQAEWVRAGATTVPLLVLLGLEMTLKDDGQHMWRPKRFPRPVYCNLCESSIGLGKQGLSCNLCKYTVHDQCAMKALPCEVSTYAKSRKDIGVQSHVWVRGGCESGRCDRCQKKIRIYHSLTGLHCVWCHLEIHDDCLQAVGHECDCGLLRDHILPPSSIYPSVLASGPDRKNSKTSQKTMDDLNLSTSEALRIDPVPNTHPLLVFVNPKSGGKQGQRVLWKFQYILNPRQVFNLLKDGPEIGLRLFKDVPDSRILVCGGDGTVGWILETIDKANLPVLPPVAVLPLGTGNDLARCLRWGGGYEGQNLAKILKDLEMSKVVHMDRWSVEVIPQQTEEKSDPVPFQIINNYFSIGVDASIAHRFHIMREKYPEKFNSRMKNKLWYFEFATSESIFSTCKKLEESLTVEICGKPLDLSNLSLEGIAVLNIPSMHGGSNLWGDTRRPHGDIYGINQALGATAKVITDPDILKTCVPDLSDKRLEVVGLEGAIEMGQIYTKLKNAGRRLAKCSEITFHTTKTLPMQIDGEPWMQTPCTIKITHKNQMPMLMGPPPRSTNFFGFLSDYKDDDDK

| Structure (SMILES) | IC50 |
| --- | --- |
| CCOc1ccc2c(c1)c(N1CCC(c3nc4cc(C)ccc4o3)CC1)c(C(N)=O)c(=O)n2C [Example 502, 6-ethoxy-1-methyl-4-[4-(5-methyl-1,3-benzoxazol-2-yl)piperidin-1-yl]-2-oxo-1,2-dihydroquinoline-3-carboxamide] | 0.12 µM |
| Cc1ccc2oc(C3CCN(c4c(C(N)=O)c(=O)n(C)c5ccc(OCC(C)(F)F)cc45)CC3)nc2c1 [Example 503, 6-(2,2-difluoropropoxy)-1-methyl-4-[4-(5-methyl-1,3-benzoxazol-2-yl)piperidin-1-yl]-2-oxo-1,2-dihydroquinoline-3-carboxamide] | 2.69 µM |
| Cc1ccc2oc(C3CCN(c4c(C(N)=O)c(=O)n(C)c5ccc(OCC(F)F)cc45)CC3)nc2c1 [Example 504, 6-(2,2-difluoroethoxy)-1-methyl-4-[4-(5-methyl-1,3-benzoxazol-2-yl)piperidin-1-yl]-2-oxo-1,2-dihydroquinoline-3-carboxamide] | 0.238 µM |
| Cc1ccc2oc(C3CCN(c4c(C(N)=O)c(=O)n(C)c5ccc(OCC6CC6)cc45)CC3)nc2c1 [Example 505, 6-(cyclopropylmethoxy)-1-methyl-4-[4-(5-methyl-1,3-benzoxazol-2-yl)piperidin-1-yl]-2-oxo-1,2-dihydroquinoline-3-carboxamide] | 0.269 µM |
| Cc1ccc2oc(C3CCN(c4c(C(N)=O)c(=O)n(C)c5ccc(C6CCC6)cc45)CC3)nc2c1 [Example 506, 6-cyclobutyl-1-methyl-4-[4-(5-methyl-1,3-benzoxazol-2-yl)piperidin-1-yl]-2-oxo-1,2-dihydroquinoline-3-carboxamide] | 0.574 µM |
| Cc1ccc2oc(C3CCN(c4c(C(N)=O)c(=O)n(C)c5ccc(C6(C(F)(F)F)CC6)cc45)CC3)nc2c1 [Example 507, 1-methyl-4-[4-(5-methyl-1,3-benzoxazol-2-yl)piperidin-1-yl]-2-oxo-6-[1-(trifluoromethyl)cyclopropyl]-1,2-dihydroquinoline-3-carboxamide] | 0.085 µM |
| Cc1ccc2oc(C3CCN(c4c(C(N)=O)c(=O)n(C)c5cc(OCC(N)=O)ccc45)CC3)nc2c1 [Example 508, 7-(2-amino-2-oxoethoxy)-1-methyl-4-[4-(5-methyl-1,3-benzoxazol-2-yl)piperidin-1-yl]-2-oxo-1,2-dihydroquinoline-3-carboxamide] | 0.0014 µM |
| Cc1ccc2oc(C3(F)CCN(c4c(C(N)=O)c(=O)n(C)c5cc(OC6CCOC6)ccc45)CC3)nc2c1 (stereo not drawn) [Example 509, 4-[4-fluoro-4-(5-methyl-1,3-benzoxazol-2-yl)piperidin-1-yl]-1-methyl-2-oxo-7-[(oxolan-3-yl)oxy]-1,2-dihydroquinoline-3-carboxamide] | 0.002 µM |
| Cc1ccc2oc(C3CCN(c4c(C(N)=O)c(=O)n(C)c5cc([N+](=O)[O-])c(C)cc45)CC3)nc2c1 [Example 510, 1,6-dimethyl-4-[4-(5-methyl-1,3-benzoxazol-2-yl)piperidin-1-yl]-7-nitro-2-oxo-1,2-dihydroquinoline-3-carboxamide] | 0.07 µM |
| Cc1ccc2oc(C3CCN(c4c(C(N)=O)c(=O)n(C)c5cc(O)c(Br)cc45)CC3)nc2c1 [Example 511, 6-bromo-7-hydroxy-1-methyl-4-[4-(5-methyl-1,3-benzoxazol-2-yl)piperidin-1-yl]-2-oxo-1,2-dihydroquinoline-3-carboxamide] | 0.0015 µM |
| Cc1ccc2oc(C3(C)CCN(c4c(C(N)=O)c(=O)n(C)c5cc(O)c(Br)cc45)CC3)nc2c1 [Example 512, 6-bromo-7-hydroxy-1-methyl-4-[4-methyl-4-(5-methyl-1,3-benzoxazol-2-yl)piperidin-1-yl]-2-oxo-1,2-dihydroquinoline-3-carboxamide] | 0.0008 µM |
| Cn1c(=O)c(C(N)=O)c(N2CCC(c3nnc(-c4cccc(C(F)(F)F)c4)o3)CC2)c2cc(Br)ccc21 [Example 519] | 0.02 µM |
| COc1ccc2c(c1)c(N1CCC(c3nc(-c4cccc(C)c4)no3)CC1)c(C(N)=O)c(=O)n2C [Example 520, 6-methoxy-1-methyl-4-{4-[3-(3-methylphenyl)-1,2,4-oxadiazol-5-yl]piperidin-1-yl}-2-oxo-1,2-dihydroquinoline-3-carboxamide] | 0.037 µM |
| COc1ccc2c(c1)c(N1CCC(c3nc(-c4ccccc4)no3)CC1)c(C(N)=O)c(=O)n2C [Example 521, 6-methoxy-1-methyl-2-oxo-4-[4-(3-phenyl-1,2,4-oxadiazol-5-yl)piperidin-1-yl]-1,2-dihydroquinoline-3-carboxamide] | 0.043 µM |
| COc1ccc2c(c1)c(N1CCC(c3nc(-c4ccccc4C)no3)CC1)c(C(N)=O)c(=O)n2C [Example 522, 6-methoxy-1-methyl-4-{4-[3-(2-methylphenyl)-1,2,4-oxadiazol-5-yl]piperidin-1-yl}-2-oxo-1,2-dihydroquinoline-3-carboxamide] | 0.044 µM |
| Cn1c(=O)c(C(N)=O)c(N2CCC(c3nc(-c4ccccc4)no3)CC2)c2cc(Br)ccc21 [Example 523, 6-bromo-1-methyl-2-oxo-4-[4-(3-phenyl-1,2,4-oxadiazol-5-yl)piperidin-1-yl]-1,2-dihydroquinoline-3-carboxamide] | 0.0037 µM |
| Cn1c(=O)c(C(N)=O)c(N2CCC(c3nnc(-c4ccccc4)o3)CC2)c2cc(Br)ccc21 [Example 524, 6-bromo-1-methyl-2-oxo-4-[4-(5-phenyl-1,3,4-oxadiazol-2-yl)piperidin-1-yl]-1,2-dihydroquinoline-3-carboxamide] | 0.045 µM |
| Cc1ccccc1-c1nnc(C2CCN(c3c(C(N)=O)c(=O)n(C)c4ccc(Br)cc34)CC2)o1 [Example 525, 6-bromo-1-methyl-4-{4-[5-(2-methylphenyl)-1,3,4-oxadiazol-2-yl]piperidin-1-yl}-2-oxo-1,2-dihydroquinoline-3-carboxamide] | 0.039 µM |
| Cc1cccc(-c2nnc(C3CCN(c4c(C(N)=O)c(=O)n(C)c5ccc(Br)cc45)CC3)o2)c1 [Example 526, 6-bromo-1-methyl-4-{4-[5-(3-methylphenyl)-1,3,4-oxadiazol-2-yl]piperidin-1-yl}-2-oxo-1,2-dihydroquinoline-3-carboxamide] | 0.027 µM |
| Cc1ccccc1-c1nnc(C2CCN(c3c(C(N)=O)c(=O)n(C)c4cc(O)c(Br)cc34)CC2)o1 [Example 529, 6-bromo-7-hydroxy-1-methyl-4-{4-[5-(2-methylphenyl)-1,3,4-oxadiazol-2-yl]piperidin-1-yl}-2-oxo-1,2-dihydroquinoline-3-carboxamide] | 0.046 µM |
| COc1cc2c(cc1Br)c(N1CCC(c3nc(-c4ccccc4C)no3)CC1)c(C#N)c(=O)n2C [Example 530, 6-bromo-7-methoxy-1-methyl-4-{4-[3-(2-methylphenyl)-1,2,4-oxadiazol-5-yl]piperidin-1-yl}-2-oxo-1,2-dihydroquinoline-3-carbonitrile] | 0.0018 µM |
| Cc1ccccc1-c1noc(C2CCN(c3c(C#N)c(=O)n(C)c4cc(O)c(Br)cc34)CC2)n1 [Example 531, 6-bromo-7-hydroxy-1-methyl-4-{4-[3-(2-methylphenyl)-1,2,4-oxadiazol-5-yl]piperidin-1-yl}-2-oxo-1,2-dihydroquinoline-3-carbonitrile] | 0.0081 µM |
| Cc1ccc2oc(C3CCN(c4c(C#N)c(=O)n(C)c5cc(O[C@@H]6CCOC6)c(Br)cc45)CC3)nc2c1 [Example 537, (−)-6-bromo-1-methyl-4-[4-(5-methyl-1,3-benzoxazol-2-yl)piperidin-1-yl]-2-oxo-7-{[(3R)-oxolan-3-yl]oxy}-1,2-dihydroquinoline-3-carbonitrile] | 0.0002 µM |
| COCCNc1cc2c(cc1C)c(N1CCC(c3nc4cc(C)ccc4o3)CC1)c(C#N)c(=O)n2C [Example 547, 7-[(2-methoxyethyl)amino]-1,6-dimethyl-4-[4-(5-methyl-1,3-benzoxazol-2-yl)piperidin-1-yl]-2-oxo-1,2-dihydroquinoline-3-carbonitrile] | 0.0006 µM |
| Cc1ccc2oc(C3CCN(c4c(C#N)c(=O)n(C)c5cc(NC6COC6)c(C)cc45)CC3)nc2c1 [Example 549, 1,6-dimethyl-4-[4-(5-methyl-1,3-benzoxazol-2-yl)piperidin-1-yl]-7-[(oxetan-3-yl)amino]-2-oxo-1,2-dihydroquinoline-3-carbonitrile] | 0.0006 µM |
| Cc1ccc2oc(C3CCN(c4c(C#N)c(=O)n(C)c5cc(N(C)CCO)c(C)cc45)CC3)nc2c1 [Example 551, 7-[(2-hydroxyethyl)(methyl)amino]-1,6-dimethyl-4-[4-(5-methyl-1,3-benzoxazol-2-yl)piperidin-1-yl]-2-oxo-1,2-dihydroquinoline-3-carbonitrile] | 0.0001 µM |
| COCCNc1cc2c(cc1C)c(N1CCC(c3nc4cc(C)ccc4o3)CC1)c(C(N)=O)c(=O)n2C [Example 552, 7-[(2-methoxyethyl)amino]-1,6-dimethyl-4-[4-(5-methyl-1,3-benzoxazol-2-yl)piperidin-1-yl]-2-oxo-1,2-dihydroquinoline-3-carboxamide] | 0.0016 µM |
| Cc1cc2c(N3CCC(c4nc(-c5ccccc5C)no4)CC3)c(C#N)c(=O)n(C)c2cc1NCCO [Example 559, 7-[(2-hydroxyethyl)amino]-1,6-dimethyl-4-{4-[3-(2-methylphenyl)-1,2,4-oxadiazol-5-yl]piperidin-1-yl}-2-oxo-1,2-dihydroquinoline-3-carbonitrile] | 0.0017 µM |
| Cc1cc2c(N3CCC(c4ccn(-c5ccccc5C)n4)CC3)c(C#N)c(=O)n(C)c2cc1Br [Example 560, 7-bromo-1,6-dimethyl-4-{4-[1-(2-methylphenyl)-1H-pyrazol-3-yl]piperidin-1-yl}-2-oxo-1,2-dihydroquinoline-3-carbonitrile] | 0.105 µM |
| Cc1cc2c(N3CCC(c4ccn(-c5ccccc5C)n4)CC3)c(C#N)c(=O)n(C)c2cc1NCCO [Example 561, 7-[(2-hydroxyethyl)amino]-1,6-dimethyl-4-{4-[1-(2-methylphenyl)-1H-pyrazol-3-yl]piperidin-1-yl}-2-oxo-1,2-dihydroquinoline-3-carbonitrile] | 0.0014 µM |
